From paper PMC4814829, “Design, synthesis, crystallization and biological evaluation of new symmetrical biscationic compounds as selective inhibitors of human Choline Kinase α1 (ChoKα1)” (Scientific Reports, 2016)

Assays:
human ChoKα1 = molecular target: T1, human ChoKα1 (Homo sapiens, UniProt P35790); test: Tryptophan fluorescence quenching; format: binding; details: mean ± S.D. of at least three independent experiments; 25 °C, enzyme 1 μM; read-out: HsChoKα1 Kd
T1 construct: made in house
Method: All compounds were prepared in 100% DMSO. Their Kds against human ChoKα1 were measured by monitoring the quenching of tryptophan fluorescence. All experiments were performed in a Cary Eclipse spectrofluorometer (Varian) at 25 °C with the enzymes at 1 μM, and concentrations of compounds varying from 0.1 to 5 μM for ChoKα1 in 25 mM Tris, 150 mM NaCl, pH 7.5. Fluorescence emission spectra were recorded in the 300–400 nm range with an excitation wavelength of 280 nm, with slit width of 5 nm. Controls were determined by incubating the enzymes with equivalent amounts of DMSO. As indicated previously, data analysis was performed in Prism (GraphPad software) considering a model with a single binding site (Eq. 1), where F0 is the intrinsic fluorescence of the enzyme in the absence of quencher (Q), F1 is the observed fluorescence at a given quencher concentration, fa is the fractional degree of fluorescence, and Kd is the dissociation constant.

purified human ChoKα1 = purified human ChoKα1 (Homo sapiens, UniProt P35790); test: Determination of human choline kinase α1 activity ([methyl-14C]choline incorporation into phosphocholine); format: biochemical; details: mean ± SEM, three independent experiments; read-out: IC50 ChoKα1 purified
Method: The effect of the different inhibitors on human choline kinase (ChoK) was assayed in ChoKα1 purified as previously described[32]. In each experiment DMSO-assays were always run in parallel as a control. DMSO in no case exceeded a concentration of 0.1% in order to avoid unspecific ChoK inhibition. ChoK activity was assayed by measuring the rate of incorporation of ^14C from [methyl-^14C]choline into phosphocholine both in the presence or absence of different inhibitor concentrations. Briefly, the final reaction mixture contained 100 mM Tris (pH 8.5), 10 mM MgCl2, and 10 mM ATP, and 20 ng of purified ChoKα1. […] The assay was stopped by immersing the reaction tubes in boiling water for 3 min. Aliquots of the reaction mixture were applied to the origin of Silica Gel plates in the presence of phosphocholine (0.1 mg) and choline (0.1 mg) as carriers. The chromatography was developed in methanol/0.6% NaCl/28% NH4OH in water (50:50:5, v/v/v) as solvent. Phosphocholine was visualized under exposure to iodine vapor and the corresponding spot was scraped and transferred to scintillation vials for measurement of radioactivity by a Beckman 6000-TA (Madrid, Spain) liquid-scintillation counter. At least three experiments were performed in all assays.

A549 cells = test: Antiproliferative MTT assay; format: cell-based; details: Homo sapiens, 72 h, mean ± SEM
Method: (§1) Human T-cell leukemia (Jurkat), human B-cell leukemia (RS 4,11) and human promyelocytic leukemia (HL-60) cells were grown in RPMI-1640 medium (Gibco, Milan, Italy). Breast adenocarcinoma (MCF-7 and MDA-MB-231), human non-small cell lung carcinoma (A549), human cervix carcinoma (HeLa), human prostate adenocarcinoma (PC-3), and human colon adenocarcinoma (HT-29) cells were grown in DMEM medium (Gibco, Milan, Italy). Both media were supplemented with 115 units/mL of penicillin G (Gibco, Milan, Italy), 115 μg/mL of streptomycin (Invitrogen, Milan, Italy) and 10% fetal bovine serum (Invitrogen, Milan, Italy). Stock solutions (10 mM) of the different compounds were obtained by dissolving them in DMSO. Individual wells of 96-well tissue-culture microtiter plates were inoculated with 100 μL of complete medium containing 8 × 10^3 cells. The plates were incubated at 37 °C in a humidified 5% CO2 incubator for 18 h prior to the experiments. After medium removal, 100 μL of fresh medium containing the test compound at different concentrations was added to each well and incubated at 37 °C for 72 h. The percentage of DMSO in the medium in no case exceeded 0.25%.

HL-60 cells = test: Antiproliferative MTT assay; format: cell-based; details: Homo sapiens, 72 h, mean ± SEM
Method: as §1

HT-29 cells = test: Antiproliferative MTT assay; format: cell-based; details: Homo sapiens, 72 h, mean ± SEM
Method: as §1

HeLa cells = test: Antiproliferative MTT assay; format: cell-based; details: Homo sapiens, 72 h, mean ± SEM
Method: as §1

Jurkat cells [1] = test: Antiproliferative MTT assay; format: cell-based; details: Homo sapiens, 72 h, mean ± SEM
Method: as §1

MCF-7 cells [2] = test: Antiproliferative MTT assay; format: cell-based; details: Homo sapiens, MCF7, 72 h, mean ± SEM
Method: as §1

MDA-MB-231 cells [3] = test: Antiproliferative MTT assay; format: cell-based; details: Homo sapiens, 72 h, mean ± SEM
Method: as §1

PC-3 cells = test: Antiproliferative MTT assay; format: cell-based; details: Homo sapiens, 72 h, mean ± SEM
Method: as §1

RS4,11 cells = test: Antiproliferative MTT assay; format: cell-based; details: Homo sapiens, 72 h, mean ± SEM
Method: as §1

PBL (+Pha) = test: Antiproliferative assay in non-tumoral cells (MTT); format: cell-based; details: Homo sapiens, non-tumoral cells stimulated with phytohematoagglutinin, 72 h, mean ± SEM
Method: (§2) Peripheral mononuclear cells (PBMC) from healthy donors were obtained by separation on Lymphoprep (Fresenius KABI Norge AS) gradient. After extensive washing, cells were resuspended (1 × 10^6 cells/mL) in RPMI-1640 with 10% fetal bovine serum and incubated overnight. For cytotoxicity evaluations in proliferating PBL cultures, non-adherent cells were resuspended at 5 × 10^5 cells/mL in growth medium, containing 2.5 μg/mL PHA (Irvine Scientific). Different concentrations of the test compounds were added, and viability was determined 72 h later by the MTT test. For cytotoxicity evaluations in resting PBL cultures, non-adherent cells were resuspended (5 × 10^5 cells/mL) and treated for 72 h with the test compounds, as described above.

PBL (resting) = test: Antiproliferative assay in non-tumoral cells (MTT); format: cell-based; details: Homo sapiens, 72 h, mean ± SEM
Method: as §2

Human fibroblasts = test: Antiproliferative assay in non-tumoral cells; format: cell-based; details: Fibroblast, mean ± SEM
Description: Human fibroblasts from foreskin were isolated as previously described[58] and maintained in DMEM medium with 10% fetal bovine serum added.

HUVEC = test: Antiproliferative assay in non-tumoral cells; format: cell-based; details: Homo sapiens, mean ± SEM
Method: Human Umbilical Vein Endothelial cells (HUVEC), were prepared from human umbilical-cord veins, as previously described. The adherent cells were maintained in M200 medium added by LSGS (low serum growth supplement), containing FBS, hydrocortisone, hEGF, bFGF, heparin, gentamycin/amphotericin (Life Technologies, Monza, Italy). Once confluent, the cells were detached by trypsin–EDTA solution and used in experiments from the first to sixth passages.

Jurkat cells [4] = test: Annexin-V/PI assay; format: cell-based, human; details: 72 h, positive controls Cis-Pt 50 μM, Etoposide 5 μM
Method: (§3) Surface exposure of PS on apoptotic cells was measured by flow cytometry with Cytomics FC500 (Beckman Coulter) by adding simultaneously annexin-V conjugated to fluorescein isothiocyanate (FITC) and PI to cells according to the manufacturer′s instructions (Annexin-V Fluos, Roche Diagnostic).

MCF-7 cells [5] = test: Annexin-V/PI assay; format: cell-based, human; details: MCF-7, 72 h; positive controls Cis-Pt 50 μM, Etoposide 5 μM
Method: as §3

MDA-MB-231 cells [6] = test: Annexin-V/PI assay; format: cell-based, human; details: MDA-MB-231, 72 h; positive controls Cis-Pt 50 μM, Etoposide 5 μM
Method: as §3

MDA-MB-231 cells [7] = test: Cell-cycle distribution analysis (PI, flow cytometry); format: cell-based, human; details: MDA-MB-231
Method: [The source words this procedure for another cell line and reports this cell line under the same test.] For flow-cytometric analysis of the DNA content, 5 × 10^5 HeLa or Jurkat cells in exponential growth were treated with different concentrations of the test compounds for 24 and 48 h. After the incubation period, the cells were collected, centrifuged, and fixed with ice-cold ethanol (70%). The cells were then treated with lysis buffer containing RNAse A and 0.1% Triton X-100, and then stained with propidium iodide (PI). Samples were analyzed in a Cytomics FC500 flow cytometer (Beckman Coulter). DNA histograms were analyzed using MultiCycle for Windows (Phoenix Flow Systems).

[8] = test system: breast- and colon-cancer cells; parameters: method as in earlier work; details: 15 μM; ref 15 (Sanchez-Lopez et al.); cited from earlier work
[9] = Solubility in crystallization mother liquor (crystal soaking); format: physicochemical; details: 20% PEG 3350, 0.25 M potassium isothiocyanate, 10% DMSO, compound 50 mM
Method: ChoKα1 at 20 mg/ml in buffer 25 mM Tris/HCl, 150 mM NaCl pH 7.5 was used as the protein solution. The sitting-drop vapor-diffusion method was used to produce apo-crystals by mixing 0.5 μl of the protein solution and an equal volume of mother liquor (crystals appeared in 20% polyethylene glycol [PEG] 3350 and 0.25 M potassium isothiocyanate). Tetragonal crystals (space group P43212) grew within in 3–4 days and were soaked in 2 μL of the mother liquor with 0.2 μL of a dilution 500 mM of compounds 10a, 10g, 10h, 10k, and 10l in DMSO (DMSO was at 10% final concentration in the mix whereas compounds were at 50 mM) for two days. Only crystals soaked with compound 10a contained the compound. The crystals used in this study were cryoprotected in mother-liquor solutions containing 20% ethylenglycol and frozen in a nitrogen gas stream cooled to 100 K.

purified human ChoKα1, sequence (P35790 whole entry): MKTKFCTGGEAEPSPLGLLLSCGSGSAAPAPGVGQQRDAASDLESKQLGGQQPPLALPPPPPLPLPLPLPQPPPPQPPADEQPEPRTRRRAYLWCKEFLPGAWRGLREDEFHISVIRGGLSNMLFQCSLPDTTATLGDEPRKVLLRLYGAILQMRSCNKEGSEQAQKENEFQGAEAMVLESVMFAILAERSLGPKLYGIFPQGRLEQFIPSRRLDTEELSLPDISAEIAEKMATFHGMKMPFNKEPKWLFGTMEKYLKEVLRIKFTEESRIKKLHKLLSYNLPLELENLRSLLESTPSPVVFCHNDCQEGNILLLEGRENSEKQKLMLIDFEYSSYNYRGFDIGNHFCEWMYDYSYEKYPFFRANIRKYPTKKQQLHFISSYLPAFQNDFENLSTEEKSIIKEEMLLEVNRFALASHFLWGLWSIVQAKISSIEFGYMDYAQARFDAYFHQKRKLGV
T1 sequence (P35790 whole entry): as above

Row | Structure (SMILES) | Kd (human ChoKα1) | IC50 (purified human ChoKα1) | GI50 (A549 cells) | GI50 (HL-60 cells) | GI50 (HT-29 cells) | GI50 (HeLa cells) | GI50 (Jurkat cells [1]) | GI50 (MCF-7 cells [2]) | GI50 (MDA-MB-231 cells [3]) | GI50 (PC-3 cells) | GI50 (RS4,11 cells) | GI50 (PBL (+Pha)) | GI50 (PBL (resting)) | GI50 (Human fibroblasts) | GI50 (HUVEC) | Apoptotic cells (annexin-V/PI) (Jurkat cells [4]) | Apoptotic cells (annexin-V/PI) (MCF-7 cells [5]) | Apoptotic cells (annexin-V/PI) (MDA-MB-231 cells [6]) | also measured
1 | CN(c1ccc(Cl)cc1)c1cc[n+](Cc2ccc(OCCOc3ccc(C[n+]4ccc(N(C)c5ccc(Cl)cc5)c5ccccc54)cc3)cc2)c2ccccc12.[Br-].[Br-] [Compound 10g, 1,1′-(((ethane-1,2-diylbis(oxy))bis(4,1-phenylene))bis(methylene))bis(4-((4-chlorophenyl)(methyl)amino)quinolinium) bromide] | 517 ± 99 nM | 3270 ± 660 nM | 110 ± 18 nM | 710 ± 240 nM | 750 ± 120 nM | 250 ± 60 nM | 98 ± 31 nM | 460 ± 63 nM | 190 ± 9 nM | 260 ± 10 nM | 150 ± 40 nM | 550 ± 110 nM | 980 ± 250 nM | 7400 ± 2400 nM | 10400 ± 3500 nM |  |  |  | melting point: 178 to 180 °C
2 | COc1cc([C@@H]2c3cc4c(cc3[C@@H](O[C@@H]3O[C@@H]5CO[C@@H](C)O[C@H]5[C@H](O)[C@H]3O)[C@H]3COC(=O)[C@H]23)OCO4)cc(OC)c1O [Etoposide] |  |  |  |  |  |  |  |  |  |  |  |  |  |  |  | induce significant apoptosis | induce significant apoptosis | induce significant apoptosis | 
3 | CN(C)c1cc[n+](Cc2ccc(CCCCc3ccc(C[n+]4ccc(N(C)C)cc4)cc3)cc2)cc1 [MN58b, reference compound] |  |  | 540 ± 200 nM | 320 ± 30 nM | 1900 ± 400 nM | 1900 ± 100 nM | 350 ± 100 nM | 1800 ± 60 nM | 310 ± 120 nM |  | 1000 ± 300 nM | 150 ± 50 nM | 2000 ± 400 nM |  | 2100 ± 580 nM |  |  |  | Cells with hypodiploid DNA content (apoptotic cells by cell-cycle analysis) (MDA-MB-231 cells [7]): negligible percentage of apoptotic cells; Cell-cycle effect (G1 phase) [8]: significant decrease of the G1 phase
4 | CN(c1ccccc1)c1cc[n+](Cc2ccc(OCCOc3ccc(C[n+]4ccc(N(C)c5ccccc5)c5ccc(Cl)cc54)cc3)cc2)c2cc(Cl)ccc12 [Compound 10h, 1,1′-(((ethane-1,2-diylbis(oxy))bis(4,1-phenylene))bis(methylene))bis(7-chloro-4-(methyl(phenyl)amino)quinolinium) bromide] |  | 2790 ± 170 nM | 180 ± 80 nM | 920 ± 60 nM | 350 ± 70 nM | 320 ± 62 nM | 310 ± 70 nM | 320 ± 40 nM | 230 ± 40 nM | 850 ± 320 nM | 26 ± 6 nM | 320 ± 30 nM | 1000 ± 420 nM | 3700 ± 430 nM | 16000 ± 6600 nM |  |  |  | 
5 | N.N.[Cl][Pt][Cl] [Cis-Pt] |  |  |  |  |  |  |  |  |  |  |  |  |  |  |  | induce significant apoptosis | induce significant apoptosis | induce significant apoptosis | 
6 | Clc1ccc2c(N3CCCC3)cc[n+](Cc3ccc(OCCOc4ccc(C[n+]5ccc(N6CCCC6)c6ccc(Cl)cc65)cc4)cc3)c2c1.[Br-].[Br-] [Compound 10l, 1,1′-(((ethane-1,2-diylbis(oxy))bis(4,1-phenylene))bis(methylene))bis(7-chloro-4-(pyrrolidin-1-yl)quinolinium) bromide] | 357 ± 39 nM | 920 ± 10 nM | 140 ± 60 nM | 160 ± 70 nM | 560 ± 210 nM | 370 ± 180 nM | 7 ± 3 nM | 22 ± 7 nM | 50 ± 20 nM | 800 ± 200 nM | 420 ± 140 nM | 490 ± 150 nM | 3800 ± 550 nM | 9600 ± 1300 nM | 11400 ± 5900 nM |  |  |  | Solubility in the mother liquor [9]: insoluble in the mother liquor
